Results reported in ChEMBL document CHEMBL1144755, “Co-existence of alpha-glucosidase-inhibitory and liver X receptor-regulatory activities and their separation by structural development” (Bioorg Med Chem, 2008).
Calls of active or inactive are those of the source. The rule behind the calls is not given here.

Tests used:
[1] = Inhibition of Saccharomyces sp. alpha-glucosidase
[2] = Agonist activity at LXR; assay type: functional
[3] = target: T1, Oxysterols receptor LXR-beta (Homo sapiens, UniProt P55055); test: Antagonist activity at human recombinant LXRbeta expressed in HEK293 cells by luciferase reporter gene assay; assay type: functional, cell-based
T1 sequence (P55055 whole entry): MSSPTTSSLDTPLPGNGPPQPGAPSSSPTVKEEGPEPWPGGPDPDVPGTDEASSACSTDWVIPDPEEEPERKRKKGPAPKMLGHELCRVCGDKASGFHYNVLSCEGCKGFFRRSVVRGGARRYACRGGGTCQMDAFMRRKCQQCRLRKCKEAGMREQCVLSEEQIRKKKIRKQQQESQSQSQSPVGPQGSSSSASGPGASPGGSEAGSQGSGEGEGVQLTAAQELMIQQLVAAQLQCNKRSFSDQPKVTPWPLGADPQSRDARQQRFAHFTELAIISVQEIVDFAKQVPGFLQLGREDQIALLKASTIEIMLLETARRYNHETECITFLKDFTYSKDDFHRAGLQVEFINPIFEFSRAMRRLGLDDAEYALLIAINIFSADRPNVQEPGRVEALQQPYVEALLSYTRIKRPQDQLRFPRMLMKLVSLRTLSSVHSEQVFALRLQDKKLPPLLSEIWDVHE

[4] = target: T2, Oxysterols receptor LXR-alpha (Homo sapiens, UniProt Q13133); test: Antagonist activity at human recombinant LXRalpha expressed in HEK293 cells by luciferase reporter gene assay; assay type: functional, cell-based
T2 sequence (Q13133 whole entry): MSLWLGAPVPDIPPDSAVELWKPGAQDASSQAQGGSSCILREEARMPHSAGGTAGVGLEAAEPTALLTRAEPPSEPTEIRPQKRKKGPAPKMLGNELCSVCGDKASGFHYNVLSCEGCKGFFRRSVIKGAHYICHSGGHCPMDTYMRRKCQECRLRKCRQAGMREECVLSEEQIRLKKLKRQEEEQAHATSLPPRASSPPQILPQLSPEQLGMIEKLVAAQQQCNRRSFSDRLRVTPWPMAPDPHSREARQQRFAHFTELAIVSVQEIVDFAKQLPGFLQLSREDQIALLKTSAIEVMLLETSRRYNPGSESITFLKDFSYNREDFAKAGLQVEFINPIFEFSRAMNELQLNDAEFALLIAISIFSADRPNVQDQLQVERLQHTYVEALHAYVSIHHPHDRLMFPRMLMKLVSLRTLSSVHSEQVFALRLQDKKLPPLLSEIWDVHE

Structure (SMILES) | IC50 [1] [µM] | IC50 [3] [µM] | IC50 [4] [µM] | Activity [2]
O=C1c2ccccc2C(=O)N1c1ccccc1CCc1ccccc1 | 16.2 | – | – | inactive
COc1ccc2c(c1)CCc1ccc(cc1)Oc1cc(ccc1OC)CCc1ccc-2c(OC)c1 | 49 | 14 | 2 | inactive
COc1ccc2c(c1)CCc1ccc(cc1)Oc1cc(ccc1OC)CCc1ccc-2cc1 | 40 | 26 | 3.6 | inactive
O=S(=O)(c1ccccc1)N(CC(F)(F)F)c1ccc(C(O)(C(F)(F)F)C(F)(F)F)cc1 [T091317] | 100 | – | – | inactive
CC(C)CC[C@@H](O)[C@@H](C)[C@H]1CC[C@H]2[C@@H]3CC=C4C[C@@H](O)CC[C@]4(C)[C@H]3CC[C@]12C [22(R)-HYDROXYCHOLESTEROL] | 100 | – | – | inactive
CC(C)c1cccc(C(C)C)c1N1C(=O)c2ccccc2C1=S | 8 | 18 | 3.1 | inactive
CCCCCCc1ccccc1N1C(=O)c2ccccc2C1=O | 24.7 | – | – | inactive
OC[C@H]1NC[C@H](O)[C@@H](O)[C@@H]1O [DUVOGLUSTAT] | 250 | > 100 | > 100 | inactive
O=C(O)Cc1cccc(OCCCN(Cc2cccc(C(F)(F)F)c2Cl)CC(c2ccccc2)c2ccccc2)c1 | 4.8 | – | – | inactive
Oc1ccc2c(c1)CCc1ccc(cc1)Oc1cc(ccc1O)CCc1ccc-2cc1 | 4.9 | 7.6 | 4.4 | inactive
O=c1c(-c2ccc(O)cc2)coc2cc(O)cc(O)c12 [GENISTEIN] | 100 | 22 | 31 | inactive

The next lines start with results.

IC50 [1] [µM] | IC50 [3] [µM] | IC50 [4] [µM] | Structure (SMILES) | Activity [2]
> 30 | 46 | 25 | COc1ccc2c(c1)CCc1ccc(cc1)Oc1cccc(c1)CCc1ccc-2c(OC)c1 | inactive
18 | 77 | 7.1 | c1cc2cc(c1)Oc1ccc(cc1)CCc1ccccc1-c1ccc(cc1)CC2 [DEOXYRICCARDIN C] | inactive
8.6 | 13 | 6.6 | Oc1ccc2cc1Oc1ccc(cc1)CCc1ccccc1-c1ccc(cc1O)CC2 | inactive
42 | 12 | 2.2 | COc1ccc2cc1Oc1ccc(cc1)CCc1ccccc1-c1ccc(cc1OC)CC2 | inactive
19 | 7.3 | 3.2 | Oc1cc2ccc1-c1ccccc1CCc1ccc(cc1)Oc1cccc(c1)CC2 | inactive
5.1 | 10 | 8.4 | Oc1ccc2c(c1)CCc1ccc(cc1)Oc1cccc(c1)CCc1ccc-2c(O)c1 | inactive
9.9 | 6.6 | 4.9 | Oc1ccc2c(c1)CCc1ccc(cc1)Oc1cc(ccc1O)CCc1ccc-2c(O)c1 [RICCARDI C] | inactive
67 | 11 | 2.5 | COc1cc2ccc1-c1ccccc1CCc1ccc(cc1)Oc1cccc(c1)CC2 | inactive
> 100 | 41 | 7.6 | COc1ccc2cc1Oc1ccc(cc1)CCc1ccccc1-c1ccc(cc1)CC2 | inactive
15 | 14 | 5.7 | Oc1ccc2cc1Oc1ccc(cc1)CCc1ccccc1-c1ccc(cc1)CC2 | inactive
